pIC50: −log10 of the molar value. Several values for one entry are separate records, joined by “and”; a condition that tells them apart may be missing. Equal values may be shown once.
Columns and labels:
[1] = Thermogravimetric analysis (thermal stability, TG); settings: heating 10 °C min^−1, air atmosphere
[2] = biological target: T1, bovine serum albumin (BSA) (Bos taurus, UniProt P02769); assay: Steady-state FRET between BSA fluorophores and compound; type: binding; settings: [BSA] = [Quencher] = 2 μM; T = 25 °C
T1 construct: Bovine serum albumin (BSA), heat shock fraction, protease-free, fatty acid-free, essentially globulin free (pH 7, ≥98%); purchased Merck (Darmstadt, Germany)
From the text: The following equations are used to estimate the steady-state FRET parameters:(3) E=1−F/Fo=Ro^6/Ro^6+ro^6, (4) Ro^6=8.8x10^−25K^2n^−4ϕJ, (5) J=∑F(λ)ε(λ)λ^4Δλ/∑F(λ)Δλ, where E is energy transfer efficacy, Ro is the characteristic distance called Förster distance or critical distance at which the energy transfer efficacy is 50%, ro is the distance between the quencher (drug) and the BSA fluorophores. […] F(λ) is the fluorescence intensity of the fluorescence of the donor, ε(λ) (L mol^−1 cm^−1) is the molar absorption coefficient of the acceptor at wavelength λ.
(§1) BSA-ILs incubated 1 hour prior to the measurements.

[3] = biological target: T1, bovine serum albumin (BSA); assay: BSA fluorescence quenching (Stern–Volmer and double-log analysis); type: binding; settings: 25 °C; for bimolecular quenching rate constant kq: pH 7.4, τo taken as 10^−8 s; for Binding constant KA / Stern–Volmer quenching constant Ksv: sodium phosphate buffer pH 7.4, 50 mM; for Stern–Volmer quenching constant Ksv: BSA 2 μM, λex 280 nm
Description: The fluorescence quenching data are analyzed according to the Stern–Volmer Equation (1):(1) Fo/F=1+kqτqo[Q]=1+Ksv[Q], where Fo and F is the fluorescence peak intensities in the absence and in the presence of quencher.
The maximum scatter quenching constant Kq that is due to collisions between biomolecules is 2 × 10^10 L mol^−1 s^−1 [33].
The dependence of log(Fo−F/F) vs. log[Q] is linear with a slope equal to the number of the binding sites, and y-intercept corresponds to the log of the effective binding constant (KA).
All fluorescence measurements were carried out on Perkin Elmer LS 55 fluorimeter equipped with a 1.0 cm quartz cuvette.
as §1

[4] = biological target: T1, bovine serum albumin (BSA); assay: ATR-FTIR analysis of the Amide I band of BSA-compound complexes (secondary structure); settings: for α-Helices, Relative Area of Amide I band component: BSA 0.3 mM : compound 1:1, phosphate buffer pH 7.4, 50 mM, native BSA 47.3; for Unordered Structures, Relative Area of Amide I band component: '-' = no band, native BSA 21
Description: In the spectra of proteins, the Amide I band region (1700–1600 cm^−1) is mainly due to the starching vibrations of the carbonyl group (80%) and is highly sensitive to the changes in the geometry and the environment of the amide bonds. […] The band assignments were done according to Jackson and Mantsch and the analysis of the structure was taken into consideration the data on the BSA available in the literature.
The spectra of the proteins were referenced to the respective spectra of 50 mM sodium phosphate buffer, pH 7.4 containing the same amount of the corresponding IL.
Then the ATR-FTIR spectra were Fourier deconvoluted by Opus software version 5.5 using a bandwidth of 12 cm^−1, 2.9 resolution enhancement factor, and Lorentzian lineshape. Second derivative spectra were obtained using the Savitzky-Golay algorithm based on 17 smoothing points. Then, the relative contribution of each band component of the Amide I band was determined by curve fitting following the procedure of the OPUS program. In the fitting, the number of components and the initial values of their position were set as determined from the second derivative spectra. The initial bandwidth of all components was set to 12 cm^−1 and the components were approximated by mixed Lorentzian/Gaussian functions. The curve-fitting was performed according to the Local Least Squares algorithm. The assignment of the Amide I band positions to the secondary structure was done according to [36].

[5] = biological target: cytochrome C oxidase; set-up: method as in doi:10.1016/j.molliq.2017.02.027; settings: cited from earlier work; for pIC50: read-out: IC50 for the inhibition of cytochrome C oxidase
[6] = BSA:compound 1:1, pH 7.4, one value per band, in the order of the band positions of the column to the left

T1 sequence (P02769 25-607): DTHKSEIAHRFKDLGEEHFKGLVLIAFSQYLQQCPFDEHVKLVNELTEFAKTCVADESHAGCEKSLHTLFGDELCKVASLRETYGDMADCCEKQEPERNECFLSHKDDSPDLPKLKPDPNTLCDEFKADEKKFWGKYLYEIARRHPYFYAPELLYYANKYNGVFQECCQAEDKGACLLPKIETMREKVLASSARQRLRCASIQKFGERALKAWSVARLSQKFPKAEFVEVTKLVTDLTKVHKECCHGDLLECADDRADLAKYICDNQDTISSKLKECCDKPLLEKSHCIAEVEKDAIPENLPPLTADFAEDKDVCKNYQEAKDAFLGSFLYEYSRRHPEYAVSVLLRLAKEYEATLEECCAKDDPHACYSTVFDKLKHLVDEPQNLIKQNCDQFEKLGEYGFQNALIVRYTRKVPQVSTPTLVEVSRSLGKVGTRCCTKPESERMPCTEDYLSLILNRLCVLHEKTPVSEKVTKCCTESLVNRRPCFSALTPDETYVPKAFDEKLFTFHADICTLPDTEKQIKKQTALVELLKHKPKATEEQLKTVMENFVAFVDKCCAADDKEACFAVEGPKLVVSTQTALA

β-Structures, Relative Area of Amide I band components [4, 6]	Compound	Tonset (onset of the thermal degradation) [1] [°C]	EFRET (energy transfer efficacy) [2]	Ro (Förster critical distance) [2] [nm]	ro (distance between quencher and BSA fluorophores) [2] [nm]	bimolecular quenching rate constant kq [3]	Binding constant KA [3]	Stern–Volmer quenching constant Ksv [3]	α-Helices, Relative Area of Amide I band component [4] [%]	Unordered Structures, Relative Area of Amide I band component ([4]; BSA:compound 1:1, pH 7.4) [%]	pIC50 [5]	Toxicity relative to the parent sodium salt [5]	Effect on the secondary structure of BSA (in words) ([4]; BSA:compound 1:1, pH 7.4)	Aromatic Residues/Aggregated Strands/Antiparallel β-Sheets, Relative Area of Amide I band components [4, 6] [%]
	L-Valine Ethyl Ester Ketoprofenate [[L-ValOEt][KETO]]	100.4	0.1830	3.43	4.68	6.3 10^12, L mol^−1 s^−1	8.2 10^5, L mol^−1	6.3 10^4, L mol^−1	28.8	17.25				
	CC(C(=O)O)c1cccc(C(=O)c2ccccc2)c1 (stereo not shown) [cholinium ketoprofenate]										~1.67			
	CC(C(=O)O)c1cccc(C(=O)c2ccccc2)c1 (stereo not shown) [sodium ketoprofenate]										~6.22			
	L-Valine Butyl Ester Ketoprofenate [[L-ValOBu][KETO]]	101.1	0.0520	3.32	5.48	7.3 10^12, L mol^−1 s^−1	7.5 10^5, L mol^−1	7.3 10^4, L mol^−1	27.8					
	COc1ccc2cc(C(C)C(=O)[O-])ccc2c1.C[N+](C)(C)CCO (stereo not shown) [cholinium naproxenate]											more toxic than its parent sodium salt		
	L-Valine Isopropyl Ester Ketoprofenate [[L-ValOiPr][KETO]]		0.0625	3.38	5.42	7.1 10^12, L mol^−1 s^−1	1.5 10^5, L mol^−1	7.1 10^4, L mol^−1	23.8	11.7			most dramatic changes in the secondary structure	
	L-Valine Propyl Ester Ketoprofenate [[L-ValOPr][KETO]]	52.3	0.1770	3.46	4.74	7.1 10^12, L mol^−1 s^−1	2.3 10^5, L mol^−1	7.1 10^4, L mol^−1	26.9	29.2				11.0
13.5% and 13.7%	L-Leucine Ethyl Ester Ketoprofenate [[L-LeuOEt][KETO]]		0.0246	3.30	6.14	8.3 10^12, L mol^−1 s^−1	7.1 10^5, L mol^−1	8.3 10^4, L mol^−1	36.7	21.5			very close to the native BSA conformation	
